# Laboratory results published in EPA's ToxValDB 9.5 (doi:10.2903/j.efsa.2011.2334).
# What was measured:
# Anas platyrhynchos = conditions: short-term; oral; feed; mortality
# Canidae = conditions: oral, gavage, Dog Other
# Colinus virginianus = conditions: acute; oral; mortality
# Oncorhynchus mykiss = conditions: acute; duration: 96 hours; mortality
# Aleochara bilineata = conditions: chronic/long-term; duration: 28 days; reproduction
# Lepomis macrochirus = conditions: acute; duration: 96 hours; mortality
SMILES,LC50 (Anas platyrhynchos) [mg/kg-day],"NOAEL (Canidae; subchronic, duration: 90 days, body weight) [mg/kg-day]",LD50 (Colinus virginianus) [mg/kg-day],LC50 (Oncorhynchus mykiss) [µg/mL],"LD50 (Rattus norvegicus; acute, mortality) [mg/kg-day]","NOAEL (Rattus norvegicus; chronic, duration: 2 years, oral, drinking water, hematological) [mg/kg-day]","NOAEL (Rattus norvegicus; repeat dose other, oral, gavage, body weight) [mg/kg-day]",LEL (Aleochara bilineata) [g/ha],"NOAEL (Canidae; chronic, duration: 1 years, M/F, hematological) [mg/kg-day]",LC50 (Lepomis macrochirus) [µg/mL],"NOAEL (Rattus norvegicus; developmental, F, development) [mg/kg-day]"
CN=C=S [Methyl isothiocyanate],> 183,0.4,119,0.0531,147,0.44,3,,,,
CNC(=S)[S-].[Na+] [Metam-sodium],> 324,,211,,,,,608000,0.1,> 0.175,10
